Assay results as given in patent US20220228164A1, “ENGINEERED ANTIGEN PRESENTING CELLS” (Neogene Therapeutics B.V., priority 2021, published 2022).

Columns and labels:
Format in all cases: cell-based, human
[1] = system: TCR-KO Jurkat T cells expressing the GCN1L1 TCR; experiment: Peptide electroporation of BCL-6/BCL-xL-CD40L immortalized B cells, co-culture with TCR Jurkat T cells, CD69 (Examples 11, 12); settings: for presentation of the GCN1L1 antigen after peptide electroporation (CD69+ of live cells): electroporated into BCL-6/BCL-xL-CD40L immortalized B cells
Description: Immortalized primary human B cells that are electroporated with a polypeptide of a uniform length (25mer) will be efficiently processed and present T cell epitopes encoded within the polypeptide via the MHC class I pathway and activate T cells expressing an MHC class I restricted TCR specific for the T cell epitope encoded within the polypeptide. BCL-6/BCL-xL-CD40L immortalized B cells from a healthy donor were electroporated with short (10mer) (ALLETPSLLL, SEQ ID NO: 5) or long (25mer) ([…], SEQ ID NO: 6) peptides encoding the GCN1L1 mutated peptide or CMV mutated long peptide ([…], SEQ ID NO: 7), using a method known to the skilled artisan. Briefly, for each sample, 0.2e6 B cells were harvested and washed with PBS. After removal of all PBS, the dry pellet was resuspended in electroporation buffer (SF-buffer, Lonza) at a concentration of 25e6 cells per mL. Of this mixture, 20 μL per sample was added to a 96 well tissue-culture-plate that contains the appropriate amount of peptide resulting in the indicated peptide concentration. Cells were transferred to a 16-well electroporation strip (Lonza) and subsequently electroporated using the DN100 program (Lonza Amaxa). Post-electroporation, cells were rested for 10 minutes at 37° C. and transferred to a 96 well round bottom tissue-culture plate in a final volume of 200 μL of Complete B cell Medium (RPMI1640 medium supplemented with 10% (v/v) Fetal Calf Serum (FCS), 1% (v/v) Penicillin/Streptomycin (P/S), 1% (v/v) Sodium Pyruvate, 1% (v/v) Non-essential amino acids, 1% (v/v) Glutamax, 50 nM 2-Mercaptoethanol) and incubated for 0, 2, 4, 5, 6, 10 or 24 hrs at 37° C. The resting period post peptide electroporation allows for exogenous loading of the peptide onto the target cells in a parallel experimental condition. […] After 20 hours, cells were stained with antibodies directed against CD8 and CD69 and specific recognition by TCR td T cells was measured by CD69 upregulation on a flow cytometer. […]

[2] = system: Jurkat T cells expressing the class II restricted MAGE-A3 TCR; experiment: Peptide electroporation of BCL-6/BCL-xL-CD40L immortalized B cells, co-culture with TCR Jurkat T cells, CD69 (Example 12); settings: 25mer electroporated; MHC class II restricted TCR
[3] = system: TCR-KO Jurkat T cells expressing the CMV1 TCR; experiment: Peptide electroporation of BCL-6/BCL-xL-CD40L immortalized B cells, co-culture with TCR Jurkat T cells, CD69 (Examples 11, 12); settings: 25mer electroporated; MHC class I restricted TCR
Description: Immortalized primary human B cells that are electroporated with a polypeptide of a uniform length (25mer) will be efficiently processed and present T cell epitopes encoded within the polypeptide via the MHC class I pathway and activate T cells expressing an MHC class I restricted TCR specific for the T cell epitope encoded within the polypeptide. BCL-6/BCL-xL-CD40L immortalized B cells from a healthy donor were electroporated with short (10mer) (ALLETPSLLL, SEQ ID NO: 5) or long (25mer) ([…], SEQ ID NO: 6) peptides encoding the GCN1L1 mutated peptide or CMV mutated long peptide ([…], SEQ ID NO: 7), using a method known to the skilled artisan. Briefly, for each sample, 0.2e6 B cells were harvested and washed with PBS. After removal of all PBS, the dry pellet was resuspended in electroporation buffer (SF-buffer, Lonza) at a concentration of 25e6 cells per mL. […] After 20 hours, cells were stained with antibodies directed against CD8 and CD69 and specific recognition by TCR td T cells was measured by CD69 upregulation on a flow cytometer.
A CMV epitope was electroporated or loaded onto BCL-6/BCL-xL/CD40L immortalized B cells. T cell activation was measured for various concentrations of peptide after 6, 10 or 24 hours of post-electroporation resting (FIG. 17A) or were loaded with peptide (FIG. 17B) for similar time-points. […]

ALLETPSLLL [short GCN1L1 peptide, short (10mer) peptide encoding the GCN1L1 mutated peptide]
presentation of the GCN1L1 antigen after peptide electroporation (CD69+ of live cells) [1]: efficient presentation

FSWNVKAALLETPSLLLAKVGIALK [long GCN1L1 peptide, long (25mer) peptide encoding the GCN1L1 mutated peptide]
post-electroporation rest with which the peptide elicits a response (% CD69) ([1]; 25mer electroporated, MHC class I restricted TCR): ≥ 2 h | presentation of the GCN1L1 antigen after peptide electroporation (CD69+ of live cells) [1]: efficient presentation

ILGDPKKLLTQHFVQENYLEYRQVP [MAGEA3]
post-electroporation rest with which the peptide elicits a response (% CD69) [2]: ≥ 2 h

WQAGILARNLVPMVATVQGQNLKYQ [long CMV1 peptide, CMV long (25mer) peptide]
post-electroporation rest with which the peptide elicits a response (% CD69) [3]: ≥ 2 h
